Reference: patent US6365550B1, “Flufenacet-based herbicidal compositions” (Bayer Aktiengesellschaft, priority 1999, dated 2002)

What was measured:
Test in all cases: Post-emergence test/greenhouse
Format in all cases: in vivo
Details in all cases: scored after three weeks vs untreated control
Alopercurus myosuroides = tested on: Alopercurus myosuroides
Experimental: (§1) Commercial formulations of the active compounds involved were used. The active compound concentrations required for the experiments were prepared by dilution with water.
(§2) Test plants which have a height of 5 to 15 cm are sprayed with the active compound preparation in such a way that the amounts of active compound desired in each case are applied per unit area. The concentration of the spray mixture is chosen in such a way that the amounts of active compound desired in each case are applied in 500 l water/ha.
(§3) After three weeks, the degree of damage to the plants is scored in % damage in comparison with the development of the untreated control.
(§4) The figures denote the following:
(§5) 0%=no action (like untreated control)

Chenopodium album = tested on: Chenopodium album
Experimental: as §1, §2, §3, §4, §5

Apera spica-venti = tested on: Apera spica-venti
Experimental: as §1, §2, §3, §4, §5

Echinochloa crus-galli = tested on: Echinochloa crus-galli
Experimental: as §1, §2, §3, §4, §5

Row | SMILES | % damage Alopercurus myosuroides (Alopercurus myosuroides; application rate 60 g a.i./ha) [%] | % damage Chenopodium album (Chenopodium album; application rate 60 g a.i./ha) [%] | % damage Apera spica-venti (Apera spica-venti; application rate 60 g a.i./ha) [%] | % damage Echinochloa crus-galli (Echinochloa crus-galli; application rate 60 g a.i./ha) [%] | % damage Alopercurus myosuroides (Alopercurus myosuroides; application rate 30 g a.i./ha) [%] | % damage Chenopodium album (Chenopodium album; application rate 30 g a.i./ha) [%] | % damage Apera spica-venti (Apera spica-venti; application rate 30 g a.i./ha) [%] | % damage Echinochloa crus-galli (Echinochloa crus-galli; application rate 30 g a.i./ha) [%]
1 | CC(C)N(C(=O)COc1nnc(C(F)(F)F)s1)c1ccc(F)cc1 [(I), N-(4fluoro-phenyl)-N-(i-propyl)-2-(5-trifluoromethyl-1,3,4-thiadiazol-2-yl-oxy)-acetamide] | 60 | 0 | 60 | 60 | – | – | – | –
2 | CC(C)N.O=C(O)CNCP(=O)(O)O [(II-1), N-phosphonomethyl-glycine i-propyl-ammonium salt] | – | – | – | – | 0 | 0 | 0 | 0
